We go through 16 molecules from patent publication EP0520336A2, “Aldehyde derivatives and their use as calpain inhibitors” (FUJIREBIO Inc., priority 1991, dated 1992).

For assay [1], the system named is Platelet rich plasma (PRP). The assay can be described thus: Measurement of platelet-aggregation inhibiting effect (collagen-induced aggregation in platelet rich plasma). Type of assay: cell-based, Japanese white rabbit. The following applies: collagen-induced aggregation in rabbit PRP, preincubated at 37°C for 5 minutes, IC50 by method of Probit. As for the experimental part: Test Example 2 Measurement of Platelet-aggregation Inhibiting Effect
Platelet rich plasma (PRP) was prepared and the platelet aggregation was measured in accordance with the method of Born and Cross as described in J. Phystol. 168, 178-195 (1963).
Blood of a Japanese white rabbit was drawn from a carotid artery of the rabbit. 9 parts by volume of the blood were mixed with 1 part by volume of a 3.8% aqueous solution of sodium citrate. The mixture was immediately centrifuged at 200 x g at 20 °C for 15 minutes, and PRP was obtained in the supernate. The number of platelets was calculated by use of an electronic cell counter (MEK-4150 manufactured by Nihon Kohden Kabushiki Kaisha). PRP with 55 X 10^4 or more platelets per 1 µl was employed in the tests.
10 µl of a test solution containing any of the aldehyde compounds of the present invention was added to 200 µl of PRP. The mixture was preincubated at 37°C for 5 minutes. To this mixture, 10 µl of collagen (22 µg/ml) was added to cause the aggregation. The aggregation was measured by Agricometer (NKK, PAT-4A).
In preparing the above test solution, each compound synthesized in the previously mentioned Examples as shown in Table 16 was dissolved in combined dimethyl sulfoxide and polyoxyethylene 60 hardened castor oil in ethanol. The mixture was diluted with an isotonic saline and the final concentration of the dimethyl sulfoxide and polyoxyethylene 60 hardened castor oil contained in the above mixture was adjusted to less than 1 %.
The inhibitory activity of each aldehyde compound on platelet aggregation was expressed by percentages compared with a blank test defined as 100% which was performed without any of the aldehyde compounds.
The amount of each aldehyde compound necessary to inhibit the platelet aggregation by 50% [IC50] was calculated according to the method of Probit.

Assay [2] has as its system Calpain. Description: Measurement of calpain inhibiting effect (casein hydrolysis, IC50 by Probit). It is filed as biochemical, Japanese white rabbit. The following applies: 30 °C for 30 minutes, pH = 7.5, IC50 by method of Probit. As for the experimental part:
Test Example 1 Measurement of Calpain Inhibiting Effect
Calpain was separated from a skeletal muscle of a Japanese white rabbit and partially purified according to the method of Tsuji and Imahori as described in J.Biochem. 90, 233-240 (1981), whereby the calpain for use in a test for investigating the calpain inhibiting effect (i.e., the inhibitory effect on calpain activity) of the aldehyde compounds according to the present invention was prepared.
The calpain inhibiting effect was measured in accordance with the method of Yoshimura et al. as described in J. Biol. Chem. 258, 8883-8889 (1983).
Each assay mixture was prepared by mixing 0.05 ml of a 4% casein solution, 0.05 ml of a 50 mM cysteine solution, 0.05 ml of a calpain solution, 0.025 ml of purified water, 0.025 ml of a 10% dimethyl sulfoxide solution containing each compound shown in Table 15 and 0.25 ml of a 200 mM imidazole hydrochloric acid buffer solution (pH = 7.5).
The thus prepared assay mixture was preincubated at 30 ° C for 3 minutes. The reaction was started by the addition of 0.05 ml of a 50 mM calcium chloride solution to the above mixture. After the incubation at 30 °C for 30 minutes, the reaction was terminated by the addition of 0.5 ml of 5% trichloroacetic acid.
The amount of a trichloroacetic-acid-soluble protein produced by hydrolysis of casein by calpain was measured by the spectrophotometric analysis in accordance with the method of Ross and Schatz as described in Anal. Biochem. 54, 304-306 (1973), and the absorbance (a) of each sample was measured.
The absorbance (b) of a blank sample which was treated similarly without any of the aldehyde compounds of the present invention, dissolved in a 10% dimethyl sulfoxide solution, was measured.
The inhibition of calpain activity was calculated in accordance with the formula [(b-a)/b] X 100, and the amount of each aldehyde compound necessary to inhibit calpain activity by 50% [IC50] was calculated according to the method of Probit.

The target of assay [3] is a-chymotrypsin (Bos taurus, UniProt P00766). Description: Measurement of inhibitory effect on a-chymotrypsin (glutaryl-L-phenylalanine-p-nitroanilide substrate). Type of assay: biochemical. Particulars: a-chymotrypsin activity, 25 ° C, pH = 7.8. The method, then:
Test Example 3 Measurement of Inhibitory Effect on Protease other than Calpain
(2) Measurement of Inhibitory Effect on a-Chymotrypsin
The inhibitory effect on a-chymotrypsin was measured by a partially modified method of Erlanger, B. F. as described in Ach. Biochem. Biophys. 115, 206-210 (1966). […]
The mixture was preincubated at 25 ° C for 3 minutes. […] The increase of 405 nm absorbance was measured at 25 ° C with time, and the transition rate (a) of the absorbance per min was calculated.
The rate (b) of the absorbance of a blank sample treated similarly without any compound dissolved in combined dimethyl sulfoxide and 10% polyoxyethylene 60 hardened castor oil was measured. The inhibition of a-chymotrypsin activity was calculated in accordance with the formula [(b-a)/b] X 100, and the amount of each compound necessary to inhibit a-chymotrypsin activity by 50% [ICso] was calculated according to the method of Probit.
The inhibitory effect of SUAM-14541, a compound disclosed in Japanese Laid-Open Patent Application 1-121257, on a-chymotrypsin activity was measured for comparison.

The mark [4] stands for this setting: Oryctolagus cuniculus, Platelet.

pIC50: −log10 of the molar value.

A word on the pIC50: it is the negative decadic logarithm of the IC50, by convention in mol/L. Lower therefore signals a high IC50.

For `O=C[C@H](Cc1ccccc1)NC(=O)C1CCN(C(=O)/C=C/c2ccccc2Cl)CC1` [Compound No. 1-42, 1-(2-chlorocinnamoyl)piperidine-4-carboxylic acid-(1S)-(1-formyl-2-phenyl)ethylamide], the pIC50 was 4.64 in assay [1] (setting [4]) and 6.46 in assay [2].
On to `O=C[C@H](Cc1ccc(OCc2ccccc2)cc1)NC(=O)C1CCN(C(=O)/C=C/c2ccccc2)CC1` [Compound No. 1-61, 1-cinnamoylpiperidine-4-carboxylic acid-(1S)-[1-formyl-2-(4-benzyloxyphenyl)]ethyl], for which the figures for the negative-log IC50 (pIC50) in assay [1] (setting [4]) and in assay [2] were 5.02 and 6.06, respectively.
As to `O=C[C@H](Cc1c[nH]c2ccccc12)NC(=O)C1CCN(C(=O)/C=C/c2ccccc2Cl)CC1` [Compound No. 1-58, 1-(2-chlorocinnamoyl)piperidine-4-carboxylic acid-(1S)-[1-formyl-2-(3-indolyl)]ethylamide], the pIC50 was 4.66 in assay [1] (setting [4]) and 6.17 in assay [2].
For the molecule “L-N-benzyloxycarbonylleucine-(2S)-[1-formyl-3-(2-chlorophenyl)thio]propylamide [Compound No. 3-42]”, the results for the pIC50 in assay [1] and in assay [2] were 4.03 and 6.36, respectively.
Take `CC(C)C[C@H](OC(=O)Nc1ccccc1)C(=O)N[C@H](C=O)Cc1ccccc1` [Compound No. 2-19]: the figures for the pIC50 in assay [1] (setting [4]) and in assay [2] were 5.38 and 6.23, respectively.
For “L-N-benzyloxycarbonylleucine-(2S)-[1-formyl-3-(2-fluorophenyl)thio]propylamide [Compound No. 3-41]”, the figures for the negative-log IC50 (pIC50) in assay [1] and in assay [2] were 4.25 and 6.57, respectively.
On to “L-N-benzyloxycarbonylleucine-(2S)-[1-formyl-3-(4-chlorophenyl)thio]propylamide [Compound No. 3-43]”, for which the pIC50 in assay [1] was 4.28; in assay [2], 6.28.
With `O=C[C@H](Cc1ccccc1)NC(=O)C1CCN(C(=O)/C=C/c2ccccc2)CC1` [Compound No. 1-27, 1-cinnamoylpiperidine-4-carboxylic acid-(1S)-(1-formyl-2-phenyl)ethylamide], the pIC50 in assay [1] (setting [4]) is 5.54; in assay [2], 6.12.
In assay [1] (setting [4]), `CC(C)C[C@H](OC(=O)Nc1ccccc1)C(=O)N[C@H](C=O)CCSCc1ccc(Cl)cc1` [2-27] showed a pIC50 of 4.19.
Take `O=C[C@H](CCSCc1ccccc1Cl)NC(=O)C1CCN(C(=O)c2ccc3ccccc3c2)CC1` [1-51, 1-(2-naphthoyl)piperidine-4-carboxylic acid-(1S)-[1-formyl-3-(2-chlorobenzylthio)]propylamide]: the pIC50 in assay [1] (setting [4]) is 5.00; in assay [2] it was 5.85.
`O=C[C@H](Cc1ccccc1)NC(=O)C1CCN(C(=O)/C=C/c2ccc(Cl)cc2)CC1` [Compound No. 1-44, 1-(4-chlorocinnamoyl)piperidine-4-carboxylic acid-(1S)-(1-formyl-2-phenyl)ethylamide]: the pIC50 in assay [1] (setting [4]) is 4.33; in assay [2], 6.00.
For `O=C[C@H](CCSCc1ccc(Cl)cc1)NC(=O)C1CCN(C(=O)/C=C/c2ccccc2Cl)CC1` [1-62, 1-(2-chlorocinnamoyl)piperidine-4-carboxylic acid-(1S)-[1-formyl-3-(4-chlorobenzylthio)]-propylamide] the same measures were 4.77 and 5.80.
In turn, `O=C[C@H](Cc1ccccc1)NC(=O)C1CCN(C(=O)c2ccc3ccccc3c2)CC1` [1-28, 1-(2-naphthoyl)piperidine-4-carboxylic acid-(1S)-(1-formyl-2-phenyl)ethylamide] gave a pIC50 in assay [2] of 6.66.
Turning to `CC(C)C[C@H](OC(=O)Nc1cccc2ccccc12)C(=O)N[C@H](C=O)CCSCc1ccccc1F` [Compound No. 2-18], the pIC50 in assay [2] was 6.24.
As to `O=C[C@H](Cc1ccccc1)NC(=O)C1CCN(S(=O)(=O)c2ccc3ccccc3c2)CC1` [1-34, 1-(2-naphthylsulfonyl)piperidine-4-carboxylic acid-(1S)-(1-formyl-2-phenyl)ethylamide], in assay [2], the pIC50 is 6.77.
For `CC(C)C[C@H](NC(=O)OCc1ccccc1)C(=O)N[C@H](C=O)COCc1ccsc1` [Compound No. 3-6, L-N-benzyloxycarbonylleucine-(2S)-[1-formyl-2-(thiophene-3-ylmethyl)oxy]ethylamide], the pIC50 in assay [3] was less than 4.00.
